One data set in a line: physchem. To be noted: thermodynamic from solid.
The conditions of data set [1]: literature; cited from earlier work.
The conditions of data set [2]: literature (López-Nicolás 2009); cited from earlier work.
Data set [3] can be described thus: Solubility estimates at ambient temperature (gravimetric or incremental solvent addition). To be noted: thermodynamic from solid.

In brackets after ≈: the same amount, converted by molar mass.

A word on the solubility: it is the dissolved amount per volume that the medium holds. With `CC(=O)[C@H]1CC[C@H]2[C@@H]3CCC4=CC(=O)CC[C@]4(C)[C@H]3CC[C@]12C` [Progesterone, reference compound], the solubility in “physchem” (organic solvent or mixture) came to 30 mg/mL (≈ 95.4 mM).

Turning to `COc1cc(/C=C/c2ccc(O)cc2)cc(OC)c1` [Pterostilbene], the Bioavailability result in data set [1] was “poor bioavailability”. The Solubility in water entry in data set [2] is on record as “poor solubility in water”. Further, the solubility in data set [3] (ACN, organic solvent or mixture, solvent ACN, ambient temperature) was above 203 mg/mL; in data set [3] (EtOAc, organic solvent or mixture, solvent EtOAc, ambient temperature), above 201 mg/mL; in data set [3] (EtOH, organic solvent or mixture, solvent EtOH, ambient temperature) it was 410 mg/mL (≈ 1600 mM); in data set [3] (MEK, organic solvent or mixture, solvent MEK, ambient temperature (Table 1)), above 200 mg/mL; in data set [3] (MTBE, organic solvent or mixture, solvent MTBE, ambient temperature), above 200 mg/mL; in data set [3] (heptane, organic solvent or mixture, solvent Heptane, ambient temperature) it was below 2 mg/mL. For the same molecule, the solubility was at most 2 mg/mL in data set [3] (isopropanol/water with water content 70% and higher, aqueous with cosolvent or surfactant or cyclodextrin); around 22 mg/mL (≈ 85.8 mM) in data set [3] (isopropanol:water 40:60, aqueous with cosolvent or surfactant or cyclodextrin, 40:60 isopropanol to water mixture); 399 mg/mL (≈ 1560 mM) in data set [3] (isopropyl alcohol (IPA), organic solvent or mixture, solvent IPA (isopropyl alcohol), ambient temperature); 0.02 mg/mL (≈ 0.078 mM) in data set [3] (water, solvent Water, ambient temperature); 22 mg/mL (≈ 85.8 mM) in data set [3] (water:IPA 55:45, aqueous with cosolvent or surfactant or cyclodextrin, solvent Water:IPA 55:45, ambient temperature); 22 mg/mL (≈ 85.8 mM) in data set [3] (water:IPA 60:40, aqueous with cosolvent or surfactant or cyclodextrin, solvent Water:IPA 60:40, ambient temperature). The solubility was 2 mg/mL (≈ 7.8 mM) in data set [3] (water:IPA 70:30, aqueous with cosolvent or surfactant or cyclodextrin, solvent Water:IPA 70:30, ambient temperature) and 54 mg/mL (≈ 211 mM) in data set [3] (water:ethanol 50:50 v/v, aqueous with cosolvent or surfactant or cyclodextrin, solvent system Water:ethanol 50:50 v/v, ambient temperature).

With `NC(=O)c1cccnc1` [nicotinamide], the solubility in “physchem” (organic solvent or mixture) worked out at 42 mg/mL (≈ 344 mM).

As to `C1CNCCN1` [piperazine], the solubility in the data set “physchem” (aqueous with cosolvent or surfactant or cyclodextrin) was above 324 mg/mL.

The values are drawn from patent publication US9120766B2, “Methods of making cocrystals” (Aptuit (West Lafayette), LLC, priority 2011, dated 2015).
